≈ marks a conversion by molar mass, not a printed value.
How the values were obtained:
Staph. albus SS 03 = format: cell-based; settings: Brain Heart Infusion, estolate and RV11-RV15 previously hydrolized, unit assumed
Staph. aureus SS 09 = format: cell-based; settings: Brain Heart Infusion, estolate and RV11-RV15 previously hydrolized, unit assumed
B. anthranis SS 09 = format: cell-based; settings: B. anthranis SS 09 (14 bis); Brain Heart Infusion; estolate and RV11-RV15 previously hydrolized; unit assumed
Staph. aureus SS 10 = format: cell-based; settings: Brain Heart Infusion, estolate and RV11-RV15 previously hydrolized, unit assumed
C. diphtheriae SS 19 = format: cell-based; settings: Brain Heart Infusion, estolate and RV11-RV15 previously hydrolized, unit assumed
B. cereus ATCC 11778 = format: cell-based; settings: Brain Heart Infusion, estolate and RV11-RV15 previously hydrolized, unit assumed
E. coli SS 07 = format: cell-based; settings: Brain Heart Infusion, estolate and RV11-RV15 previously hydrolized, unit assumed
D. pneumoniae SS 23 [1] = format: cell-based; settings: Brain Heart Infusion, estolate and RV11-RV15 previously hydrolized, unit assumed
Cl. tetani SS 17 = format: cell-based; settings: Brain Heart Infusion, estolate and RV11-RV15 previously hydrolized, unit assumed
H. tubercolosis SS 03 = format: cell-based; settings: Brain Heart Infusion, estolate and RV11-RV15 previously hydrolized, unit assumed
Excerpt: (§1) In the following table I the MIC/ml values are indicated corresponding to the lowest concentration capable of inducing a complete inhibition of the bacterial development.

Kl. pneumoniae SS 04 = format: cell-based; settings: Brain Heart Infusion, estolate and RV11-RV15 previously hydrolized, unit assumed
Excerpt: as §1

H. influentiae SS 02 = format: cell-based; settings: Brain Heart Infusion, estolate and RV11-RV15 previously hydrolized, unit assumed
S. infantis SS 08 = format: cell-based; settings: Brain Heart Infusion, estolate and RV11-RV15 previously hydrolized, unit assumed
E. cloacae SS 07 = format: cell-based; settings: Brain Heart Infusion, estolate and RV11-RV15 previously hydrolized, unit assumed
E. coli SS 04 = format: cell-based; settings: Brain Heart Infusion, estolate and RV11-RV15 previously hydrolized, unit assumed
D. pneumoniae SS 23 [2] = experiment: Experimental infection induced by D. pneumoniae SS 23; format: in vivo, Swiss white mice; settings: D. pneumoniae SS 23, mg/kg of erythromycin, survival after 7 days, 10080 min
Method: (§2) Swiss white mice of 20 g body weight were used, infected by parenteral administration of lethal amounts of pathogenic […] of Staph. aureus SS 07 and D. pneumoniae SS 23.
(§3) The antibiotics were administered at the time of injecting the infecting germ and 6 and 24 hours later. On the basis of the survival after 7 days, the ED50 values were determined, as reported in the following table II and III, wherein the reliability limits are indicated in brackets.

H. pertussis SS 03 = format: cell-based; settings: Brain Heart Infusion, estolate and RV11-RV15 previously hydrolized, unit assumed
Staph. aureus SS 07 [3] = experiment: Experimental infection induced by Staph. aureus SS 07; format: in vivo, Swiss white mice; settings: Staph. aureus SS 07, mg/kg of erythromycin, survival after 7 days, 10080 min
Method: as §2, §3

Acute toxicity = format: in vivo; settings: mortality 10 days after treatment, mice
Method: The acute toxicity was assessed in Swiss white mice by oral and intravenous route. The LD50 values have been calculated by the methods of Probits, starting from the mortality recorded 10 days after the treatment.

Kl. aerogenes SS 71 = format: cell-based; settings: Brain Heart Infusion, estolate and RV11-RV15 previously hydrolized, unit assumed
Sr. marcescens SS 03 = format: cell-based; settings: Brain Heart Infusion, estolate and RV11-RV15 previously hydrolized, unit assumed
N. meningitidis SS 04 = format: cell-based; settings: Brain Heart Infusion, estolate and RV11-RV15 previously hydrolized, unit assumed
Citrobacter SS 09 = format: cell-based; settings: Brain Heart Infusion, estolate and RV11-RV15 previously hydrolized, unit assumed
E. aerogenes SS 011 = format: cell-based; settings: Brain Heart Infusion, estolate and RV11-RV15 previously hydrolized, unit assumed
Staph. albus SS 04 = format: cell-based; settings: Brain Heart Infusion, estolate and RV11-RV15 previously hydrolized, unit assumed
Pr. mirabilis SS 09 = format: cell-based; settings: Brain Heart Infusion, estolate and RV11-RV15 previously hydrolized, unit assumed
Staph. aureus SS 07 [4] = format: cell-based; settings: Brain Heart Infusion, estolate and RV11-RV15 previously hydrolized, unit assumed
E. coli SS 06 = format: cell-based; settings: Brain Heart Infusion, estolate and RV11-RV15 previously hydrolized, unit assumed
[5] = test system: Strept. haemolyticus SS 18; format: cell-based; settings: Brain Heart Infusion, estolate and RV11-RV15 previously hydrolized, unit assumed
Citrobacter SS 05 = format: cell-based; settings: Brain Heart Infusion, estolate and RV11-RV15 previously hydrolized, unit assumed
B. anthranis SS 08 = format: cell-based; settings: Brain Heart Infusion, estolate and RV11-RV15 previously hydrolized, unit assumed
S. heidelberg SS 18 = format: cell-based; settings: Brain Heart Infusion, estolate and RV11-RV15 previously hydrolized, unit assumed
N. gonorreae SS 27 = format: cell-based; settings: Brain Heart Infusion, estolate and RV11-RV15 previously hydrolized, unit assumed
Br. melitensis SS 19 = format: cell-based; settings: unit assumed
[6] = test system: Strept. haemolyticus SS 17; format: cell-based; settings: Brain Heart Infusion, estolate and RV11-RV15 previously hydrolized, unit assumed
Ps. aeruginosa SS 10 = format: cell-based; settings: Brain Heart Infusion, estolate and RV11-RV15 previously hydrolized, unit assumed
B. subtilis ATCC 6633 = format: cell-based; settings: Brain Heart Infusion, estolate and RV11-RV15 previously hydrolized, unit assumed
Strept. faecalis SS 19 = format: cell-based; settings: Brain Heart Infusion, estolate and RV11-RV15 previously hydrolized, unit assumed
C. albicans SS 04 = format: cell-based; settings: Brain Heart Infusion, estolate and RV11-RV15 previously hydrolized, unit assumed
[7] = Mucolytic activity: obstruction of the bronchial tract after SO2 inhalation; format: in vivo, Sprague Dawley male rats; settings: i.m., 250 mg/kg; SO2, 15 days
Staph. aureus SS 08 = format: cell-based; settings: Brain Heart Infusion, estolate and RV11-RV15 previously hydrolized, unit assumed
Pr. vulgaris SS 10 = format: cell-based; settings: Brain Heart Infusion, estolate and RV11-RV15 previously hydrolized, unit assumed

## CC[C@H]1OC(=O)[C@H](C)[C@@H](O[C@H]2C[C@@](C)(OC)[C@@H](O)[C@H](C)O2)[C@H](C)[C@@H](O[C@@H]2O[C@H](C)C[C@H](N(C)C)[C@H]2O)[C@](C)(O)C[C@@H](C)C(=O)[C@H](C)[C@@H](O)[C@]1(C)O [RV03, erythromycyn-thiazolidin-carboxylate]
Staph. albus SS 03
  MIC: 0.05 µg/mL (≈ 0.0681 µM)
Staph. aureus SS 09
  MIC: 0.05 µg/mL (≈ 0.0681 µM)
B. anthranis SS 09
  MIC: 0.4 µg/mL (≈ 0.545 µM)
Staph. aureus SS 10
  MIC: 0.1 µg/mL (≈ 0.136 µM)
C. diphtheriae SS 19
  MIC: 0.025 µg/mL (≈ 0.0341 µM)
B. cereus ATCC 11778
  MIC: 0.08 µg/mL (≈ 0.109 µM)
E. coli SS 07
  MIC: 50 µg/mL (≈ 68.1 µM)
D. pneumoniae SS 23 [1]
  MIC: 0.025 µg/mL (≈ 0.0341 µM)
Cl. tetani SS 17
  MIC: 0.4 µg/mL (≈ 0.545 µM)
H. tubercolosis SS 03
  MIC: 25 µg/mL (≈ 34.1 µM)
Kl. pneumoniae SS 04
  MIC: 100 µg/mL (≈ 136 µM)
H. influentiae SS 02
  MIC: 1.5 µg/mL (≈ 2.04 µM)
S. infantis SS 08
  MIC: 200 µg/mL (≈ 273 µM)
E. cloacae SS 07
  MIC: > 200 µg/mL
E. coli SS 04
  MIC: 100 µg/mL (≈ 136 µM)
D. pneumoniae SS 23 [2]; os
  ED50 (reliability limits): 119.21 (142.60-99.65) mg/kg
D. pneumoniae SS 23 [2]; s.c.
  ED50 (reliability limits): 47.98 (59.13-38.93) mg/kg
H. pertussis SS 03
  MIC: 0.4 µg/mL (≈ 0.545 µM)
Staph. aureus SS 07 [3]; os
  ED50 (reliability limits): 2.14 (2.42-1.89) mg/kg
Staph. aureus SS 07 [3]; s.c.
  ED50 (reliability limits): 1.00 (1.36-0.73) mg/kg
Acute toxicity; i.v., 14400 min
  LD50 (reliability limits): 491.96 (552.31-438.20) mg.kg
Acute toxicity; os
  LD50 (reliability limits): > 3000 mg·kg
Kl. aerogenes SS 71
  MIC: 50 µg/mL (≈ 68.1 µM)
Sr. marcescens SS 03
  MIC: 100 µg/mL (≈ 136 µM)
N. meningitidis SS 04
  MIC: 1.5 µg/mL (≈ 2.04 µM)
Citrobacter SS 09
  MIC: > 200 µg/mL
E. aerogenes SS 011
  MIC: 50 µg/mL (≈ 68.1 µM)
Staph. albus SS 04
  MIC: 0.025 µg/mL (≈ 0.0341 µM)
Pr. mirabilis SS 09
  MIC: > 200 µg/mL
Staph. aureus SS 07 [4]
  MIC: 0.025 µg/mL (≈ 0.0341 µM)
E. coli SS 06
  MIC: 50 µg/mL (≈ 68.1 µM)
[5]
  MIC: 1.5 µg/mL (≈ 2.04 µM)
Citrobacter SS 05
  MIC: > 200 µg/mL
B. anthranis SS 08
  MIC: 0.2 µg/mL (≈ 0.273 µM)
S. heidelberg SS 18
  MIC: 100 µg/mL (≈ 136 µM)
N. gonorreae SS 27
  MIC: 0.8 µg/mL (≈ 1.09 µM)
Br. melitensis SS 19
  MIC: 6 µg/mL (≈ 8.18 µM)
[6]
  MIC: 1.5 µg/mL (≈ 2.04 µM)
Ps. aeruginosa SS 10
  MIC: 100 µg/mL (≈ 136 µM)
B. subtilis ATCC 6633
  MIC: 0.05 µg/mL (≈ 0.0681 µM)
Strept. faecalis SS 19
  MIC: 0.05 µg/mL (≈ 0.0681 µM)
C. albicans SS 04
  MIC: 200 µg/mL (≈ 273 µM)
[7]
  Partial obstruction (% incidence): 6.66%
  Total obstruction, compact plug (% incidence): 26.66%
  Total obstruction, nodular mass (% incidence): 20%
  Total obstruction, pimply mass (% incidence): 6.66%
Staph. aureus SS 08
  MIC: 0.025 µg/mL (≈ 0.0341 µM)
Pr. vulgaris SS 10
  MIC: > 200 µg/mL

## CC[C@H]1OC(=O)[C@H](C)[C@@H](O[C@H]2C[C@@](C)(OC)[C@@H](O)[C@H](C)O2)[C@H](C)[C@@H](O[C@@H]2O[C@H](C)C[C@H](N(C)C)[C@H]2O)[C@](C)(O)C[C@@H](C)C(=O)[C@H](C)[C@@H](O)[C@]1(C)O [RV04, erythromycin-S-carboxymethylcysteinate]
Staph. albus SS 03
  MIC: 0.1 µg/mL (≈ 0.136 µM)
Staph. aureus SS 09
  MIC: 0.025 µg/mL (≈ 0.0341 µM)
B. anthranis SS 09
  MIC: 0.2 µg/mL (≈ 0.273 µM)
Staph. aureus SS 10
  MIC: 0.2 µg/mL (≈ 0.273 µM)
C. diphtheriae SS 19
  MIC: 0.205 µg/mL (≈ 0.279 µM)
B. cereus ATCC 11778
  MIC: 0.2 µg/mL (≈ 0.273 µM)
E. coli SS 07
  MIC: 25 µg/mL (≈ 34.1 µM)
D. pneumoniae SS 23 [1]
  MIC: 0.05 µg/mL (≈ 0.0681 µM)
Cl. tetani SS 17
  MIC: 0.2 µg/mL (≈ 0.273 µM)
H. tubercolosis SS 03
  MIC: 50 µg/mL (≈ 68.1 µM)
Kl. pneumoniae SS 04
  MIC: 100 µg/mL (≈ 136 µM)
H. influentiae SS 02
  MIC: 1.5 µg/mL (≈ 2.04 µM)
S. infantis SS 08
  MIC: 100 µg/mL (≈ 136 µM)
E. cloacae SS 07
  MIC: > 200 µg/mL
E. coli SS 04
  MIC: 100 µg/mL (≈ 136 µM)
D. pneumoniae SS 23 [2]; os
  ED50 (reliability limits): 119.31 (152.88-92.95) mg/kg
D. pneumoniae SS 23 [2]; s.c.
  ED50 (reliability limits): 60.17 (70.74-51.18) mg/kg
H. pertussis SS 03
  MIC: 0.8 µg/mL (≈ 1.09 µM)
Staph. aureus SS 07 [3]; os
  ED50 (reliability limits): 2.31 (2.55-2.09) mg/kg
Staph. aureus SS 07 [3]; s.c.
  ED50 (reliability limits): 1.00 (1.24-0.80) mg/kg
Acute toxicity; i.v., 14400 min
  LD50 (reliability limits): 439.46 (545.44-354.08) mg.kg
Acute toxicity; os
  LD50 (reliability limits): > 3000 mg·kg
Kl. aerogenes SS 71
  MIC: 50 µg/mL (≈ 68.1 µM)
Sr. marcescens SS 03
  MIC: > 200 µg/mL
N. meningitidis SS 04
  MIC: 1.5 µg/mL (≈ 2.04 µM)
Citrobacter SS 09
  MIC: > 200 µg/mL
E. aerogenes SS 011
  MIC: 50 µg/mL (≈ 68.1 µM)
Staph. albus SS 04
  MIC: 0.05 µg/mL (≈ 0.0681 µM)
Pr. mirabilis SS 09
  MIC: 200 µg/mL (≈ 273 µM)
Staph. aureus SS 07 [4]
  MIC: 0.025 µg/mL (≈ 0.0341 µM)
E. coli SS 06
  MIC: 100 µg/mL (≈ 136 µM)
[5]
  MIC: 1.5 µg/mL (≈ 2.04 µM)
Citrobacter SS 05
  MIC: > 200 µg/mL
B. anthranis SS 08
  MIC: 0.4 µg/mL (≈ 0.545 µM)
S. heidelberg SS 18
  MIC: 100 µg/mL (≈ 136 µM)
N. gonorreae SS 27
  MIC: 0.8 µg/mL (≈ 1.09 µM)
Br. melitensis SS 19
  MIC: 6 µg/mL (≈ 8.18 µM)
[6]
  MIC: 1.5 µg/mL (≈ 2.04 µM)
Ps. aeruginosa SS 10
  MIC: 100 µg/mL (≈ 136 µM)
B. subtilis ATCC 6633
  MIC: 0.025 µg/mL (≈ 0.0341 µM)
Strept. faecalis SS 19
  MIC: 0.05 µg/mL (≈ 0.0681 µM)
C. albicans SS 04
  MIC: 100 µg/mL (≈ 136 µM)
[7]
  Partial obstruction (% incidence): 13.33%
  Total obstruction, compact plug (% incidence): 20%
  Total obstruction, nodular mass (% incidence): 13.33%
  Total obstruction, pimply mass (% incidence): 6.66%
Staph. aureus SS 08
  MIC: 0.05 µg/mL (≈ 0.0681 µM)
Pr. vulgaris SS 10
  MIC: > 200 µg/mL
